# ChEMBL document CHEMBL5728406, “Thioether triazolopyridine and triazolopyrimidine inhibitors of myeloperoxidase” (2021)
# pIC50: −log10 of the molar value.
# Molecular target: T1, Myeloperoxidase (Homo sapiens, UniProt P05164)
# T1 sequence (P05164 whole entry): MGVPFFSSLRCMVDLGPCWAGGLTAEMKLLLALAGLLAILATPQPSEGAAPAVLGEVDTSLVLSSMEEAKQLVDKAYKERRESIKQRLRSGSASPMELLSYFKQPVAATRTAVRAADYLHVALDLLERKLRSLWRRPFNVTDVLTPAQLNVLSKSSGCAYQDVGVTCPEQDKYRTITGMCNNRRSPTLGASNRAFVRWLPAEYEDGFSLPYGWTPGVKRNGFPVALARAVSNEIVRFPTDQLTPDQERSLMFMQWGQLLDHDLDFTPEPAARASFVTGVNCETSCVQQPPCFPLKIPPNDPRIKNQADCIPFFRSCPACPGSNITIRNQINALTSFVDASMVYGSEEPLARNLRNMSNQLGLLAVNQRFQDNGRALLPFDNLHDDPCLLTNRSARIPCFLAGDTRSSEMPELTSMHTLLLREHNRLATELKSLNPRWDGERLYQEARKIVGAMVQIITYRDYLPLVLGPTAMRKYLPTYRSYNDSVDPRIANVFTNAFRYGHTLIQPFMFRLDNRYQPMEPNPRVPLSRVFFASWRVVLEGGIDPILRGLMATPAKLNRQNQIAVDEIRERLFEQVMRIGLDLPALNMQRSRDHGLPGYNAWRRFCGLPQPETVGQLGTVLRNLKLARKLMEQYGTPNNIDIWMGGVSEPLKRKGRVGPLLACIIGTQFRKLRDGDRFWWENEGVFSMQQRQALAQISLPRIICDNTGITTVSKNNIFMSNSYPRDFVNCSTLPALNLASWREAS
# Assay: MPO Chlorination (APF) Assay : MPO chlorination activity was measured in 100 mM KPi (pH 7.4) by utilizing the non-fluorescent reagent Aminophenyl fluorescein (APF, Invitrogen catalog #A36003). APF is cleaved by (—OCl) to yield the fluorescent compound fluorescein. […] Enzyme, inhibitor, and chloride were preincubated for ten minutes at rt.After the ten minute preincubation, 25 μL of an APF mixture containing […], 120 mM NaCl and 10 μM H2O2 was added to the plate using the internal dispensing system of a Hammatsu FDSS 6000. […] IC50 values for inhibitors were calculated by taking the slope of the linear portion of the kinetic measurement (20 seconds to ˜80-120 secs).IC50 values were calculated by determining the slope of the linear portion of the kinetic trace (180-540 secs), and using that calculated slope to determine % inhibition occurring at each concentration of inhibitor using the following equation:Y = A + B - A 1 + ( C / x ) Dwhere A=minimal Y value (activity level of inhibited sample), B=maximal Y value (activity level of uninhibited sample), C=Log IC50, D=Hill Slope, x=concentration of inhibitor.
row,Structure (SMILES),pIC50
1,CCc1nn(C)c(Cl)c1CSc1cc(N)nc2[nH]nnc12,> 7.22
2,N#Cc1cccc(Br)c1CSc1cc(N)nc2[nH]nnc12,> 7.22
3,Cc1nn(C)c(C)c1CSc1cc(N)nc2[nH]nnc12,7.10
4,Cn1nc(C(F)(F)F)c(CSc2cc(N)nc3[nH]nnc23)c1F,> 7.22
5,N#Cc1c(F)cccc1CSc1cc(N)nc2[nH]nnc12,> 7.22
6,Cn1ncc(CSc2cc(N)nc3[nH]nnc23)c1C(F)(F)F,> 7.22
7,Cn1cc(CSc2cc(N)nc3[nH]nnc23)c(C(F)(F)F)n1,> 7.22
8,N#Cc1ccc(Cl)c(CSc2cc(N)nc3[nH]nnc23)c1,> 7.22

# Molecular target: T1, Myeloperoxidase
# Assay: MPO Peroxidation (Amplex Red) Assay: MPO peroxidation activity was measured in 100 mM KPi (pH 7.4) by utilizing the non-fluorescent reagent Amplex Red (Invitrogen catalog #A12222) which can be oxidized to the highly fluorescent resorufin. Amplex Red is oxidized by the peroxidase action of MPO to resorufin. […] Enzyme and compound were preincubated for ten minutes at rt.After the ten minute preincubation, 25 μL of an Amplex Red mixture containing 200 μM Amplex Red and 10 mM H2O2 was added to the plate.
row,Structure (SMILES),pIC50
1,Cc1nn(C)c(C)c1CSc1cc(N)nc2[nH]nnc12,7.52
